The text below walks through data of US8188090B2, “Naphthylacetic acids” (Hoffman-La Roche Inc., priority 2008, dated 2012).

By IC50 is commonly meant the concentration at which inhibition is half-maximal.

Experiment [1] addresses T1, human CRTH2 (Homo sapiens, UniProt Q9Y5Y4).
T1 sequence (Q9Y5Y4 1-395): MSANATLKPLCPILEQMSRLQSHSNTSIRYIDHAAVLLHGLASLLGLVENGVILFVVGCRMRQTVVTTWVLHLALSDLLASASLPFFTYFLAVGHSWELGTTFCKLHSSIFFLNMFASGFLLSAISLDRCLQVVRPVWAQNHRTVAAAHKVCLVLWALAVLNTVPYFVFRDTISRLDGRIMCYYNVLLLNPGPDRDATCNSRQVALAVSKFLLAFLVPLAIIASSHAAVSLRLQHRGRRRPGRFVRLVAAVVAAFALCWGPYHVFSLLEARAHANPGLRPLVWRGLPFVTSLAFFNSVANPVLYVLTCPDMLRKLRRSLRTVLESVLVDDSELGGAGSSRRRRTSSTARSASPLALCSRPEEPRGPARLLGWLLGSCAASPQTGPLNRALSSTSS
Nature of the experiment: Human CRTH2 Receptor Binding Assay (whole cell, [3H]ramatroban). Particulars: whole CHO-K1 cells stably expressing human CRTH2 and G-alpha16; 20 nM [3H]ramatroban; 1 hour, room temperature. Further details: expressed in transfected cells; host or cells: CHO-K1. From the text:
A whole cell receptor binding assay using [^3H]ramatroban as the competing radioactive ligand was employed to evaluate the compound binding activity to human CRTH2. The radioactive ligand [^3H]ramatroban was synthesized according to Sugimoto et. al. (Eur. J. Pharmacol. 524, 30-37, 2005) to a specific activity of 42 Ci/mmol.
A cell line stably expressing human CRTH2 was established by transfecting CHO-K1 cells with two mammalian expression vectors that harbored human CRTH2 and G-alpha16 cDNAs, respectively, using FuGene® 6 transfection reagent (from Roche). Stable clones expressing CRTH2 were selected by staining each clone with BM16 (BD Pharmingen™ from BD Biosciences, a division of Becton, Dickinson and Company), which is a rat monoclonal antibody to human CRTH2. The cells were maintained as monolayer cultures in Ham's F-12 medium containing 10% fetal bovine serum, 100 units/mL penicillin, 100 μg/mL streptomycin, 2 mM glutamine, 0.5 mg/mL G418 (geneticin) for CRTH2, and 0.2 mg/mL hygromycin-B (for G-alpha 16). For whole cell receptor binding assay, the monolayer cells were rinsed once with PBS (phosphate buffered saline), dissociated using ethylenediaminetetraacetate (Versene™ EDTA from Lonza Inc.), and suspended in PBS containing 10 mM MgCl2 and 0.06% BSA (bovine serum albumin) at 1.5×10^6 cells/mL.
The binding reactions (0.2 mL) were performed in 96-well plates at room temperature in PBS containing 1.5×10^5 cells, 10 mM MgCl2, 0.06% BSA, 20 nM [^3H]ramatroban, and test compound at various concentrations. After 1 hour of binding reactions, the cells were harvested on GF™/B filter microplates (microtiter plates with embedded glass fiber from PerkinElmer, Inc.) and washed 5 times with PBS using a Filtermate™ Harvester (a cell harvester that harvests and washes cells from microplates from PerkinElmer, Inc.). The radioactivities bound to the cells were determined using a microplate scintillation counter (TopCount® NXT, from PerkinElmer, Inc.) after adding 50 μL of Microscint™ 20 scintillation fluid (from PerkinElmer, Inc.) to each well of the filter plates. The radioactivity from non-specific binding was determined by replacing compound with 10 μM of 15(R)-15-methyl PGD2 (from Cayman Chemical Company) in the reaction mixtures. The radioactivity bound to the cells in the absence of compound (total binding) was determined by replacing compound with 0.25% of DMSO (dimethyl sulfoxide) in the reaction mixture. Specific binding data were obtained by subtracting the radioactivity of non-specific binding from each binding data.
The IC50 value is defined as the concentration of the tested compound that is required for 50% inhibition of total specific binding. In order to calculate the IC50 value, the percent inhibition data were determined for 7 concentrations for each compound. The percent inhibition for a compound at each concentration was calculated according to the following formula, [1-(specific binding in the presence of compound)/(total specific binding)]×100. The IC50 value was then obtained by fitting the percent inhibition data to a sigmoidal dose-response (4 parameter logistic) model in the XLfit® software Excel add-in program [from ID Business Solutions Ltd., model 205, where F(x)=(A+(B−A)/(1+((C/x)^D)))].

Experiment [2] concerns the target T1, human CRTH2. Briefly: Calcium Flux Assay Using Fluorometric Imaging Plate Reader (FLIPR). The experiment is classed as cell-based. Further details: expressed in transfected cells; host or cells: CHO-K1 (previously transfected with G-alpha 16). Particulars: CHO-K1 cells transfected with G-alpha 16 and human CRTH2 receptor; inhibition of ligand (DK-PGD2) induced Ca2+ flux. How it is done: Calcium Flux Assay Using Fluorometric Imaging Plate Reader Cell Culture Conditions:
CHO-K1 cells previously transfected with G-alpha 16 were subsequently transfected with the human CRTH2 receptor and the neomycin resistance gene. Following selection in 800 μg/mL G418 (geneticin), individual clones were assayed for their receptor expression based on staining with an anti human CRTH2 IgG, followed by assaying for their response to 13,14-dihydro-15-keto Prostaglandin D2 (DK-PDG2) (ligand) in the Ca^2+Flux assay. Positive clones were then cloned by limiting dilution cloning. The transfected cells were cultured in Ham's F-12 medium supplemented with 10% fetal bovine serum, 2 mM glutamine, 100 U/mL penicillin/100 μg/mL streptomycin, 200 μg/mL hygromycin B, and 800 μg/mL G418 (geneticin). Cells were harvested with trypsin-EDTA (trypsin-ethylenediaminetetraacetic acid) and counted using ViaCount® reagent (from Guava Technologies, Inc. which contains two DNA-binding dyes that enable the reagent user to distinguish between viable and non-viable cells). The cell suspension volume was adjusted to 2.5×10^5 cells/mL with complete growth media. Aliquots of 50 μL were dispensed into BD Falcon™ 384 well black/clear microplates (from BD Biosciences, a division of Becton, Dickinson and Company) and the microplates were placed in a 37° C. CO2 incubator overnight. The following day, the microplates were used in the assay.
Loading Buffer containing dye (from the FLIPR® Calcium 3 Assay Kit from Molecular Devices, a division of MDS Analytical Technologies and MDS Inc.) was prepared by dissolving the contents of one bottle into 200 mL Hank's Balanced Salt Solution containing 20 mM HEPES (4-(2-hydroxyethyl)-1-piperazineethanesulfonic acid) and 2.5 mM probenecid. Growth media was removed from the cell plates and 25 μL of Hank's Balanced Salt Solution (HBSS) containing 20 mM HEPES, 0.05% BSA and 2.5 mM probenecid was added to each well followed by 25 μL of diluted dye using a Multidrop dispenser. The plates were then incubated for 1 hour at 37° C.
During the incubation, test compound plates were prepared by adding 90 μL of HBSS/20 mM HEPES/0.005% BSA buffer to the 2 μL of serial diluted compounds. To prepare serial diluted compounds, 20 mM stocks of compounds were dissolved in 100% DMSO. The compound dilution plate was set up as follows: well #1 received 5 μL of compound plus 10 μL of DMSO. Wells 2-10 received 10 μL of DMSO. 5 μL was mixed and transferred from well #1 into well #2. 1:3 serial dilutions were continued out 10 steps. […]
After incubation, both the cell and “assay plate” plates were brought to the fluorometric imaging plate reader (FLIPR®) and 20 μL of the diluted compounds were transferred to the cell plates by the FLIPR®. […] During the assay, fluorescence readings were taken simultaneously from all 384 wells of the cell plate every 1.5 seconds. Five readings were taken to establish a stable baseline, then 20 μL of sample was rapidly (30 μL/sec) and simultaneously added to each well of the cell plate. The fluorescence was continuously monitored before, during and after sample addition for a total elapsed time of 100 seconds. Responses (increase in peak fluorescence) in each well following agonist addition were determined. The initial fluorescence reading from each well, prior to ligand stimulation, was used as a zero baseline value for the data from that well. The responses were expressed as % inhibition of the buffer control. […]
For orientation: A change in cytosolic calcium serves as a functional read-out for many receptors and channels.

The structures appear in SMILES notation. Bounds are passed on as bounds.

On to `COc1ccccc1N1CCN(C(=O)c2c(C)c(CC(=O)O)cc3ccc(F)cc23)CC1` [Example 2-8, {6-Fluoro-4-[4-(2-methoxy-phenyl)-piperazine-1-carbonyl]-3-methyl-naphthalen-2-yl}-acetic acid], for which the half-inhibitory concentration (IC50) in experiment [1] was 458 nM; in experiment [2], more than 5000 nM.
In the case of `CCc1ccccc1N1CCN(C(=O)c2c(C)c(CC(=O)O)cc3ccc(F)cc23)CC1` [Example 2-10, {4-[4-(2-Ethyl-phenyl)-piperazine-1-carbonyl]-6-fluoro-3-methyl-naphthalen-2-yl}-acetic acid], the concentration for half-maximal inhibition (IC50) in experiment [1] is 450 nM; in experiment [2], more than 5000 nM.
Turning to `Cc1c(CC(=O)O)cc2ccc(F)cc2c1C(=O)N1CCN(c2ccccc2C(F)(F)F)CC1` [Example 2-15, {6-Fluoro-3-methyl-4-[4-(2-trifluoromethyl-phenyl)-piperazine-1-carbonyl]-naphthalen-2-yl}-acetic acid], the concentration for half-maximal inhibition (IC50) in experiment [1] is 253 nM; in experiment [2], more than 5000 nM.
On to `CCS(=O)(=O)N1CCC(Oc2cc(CC(=O)O)cc3ccc(F)cc23)CC1` [Example 4-2, [4-(1-Ethanesulfonyl-piperidin-4-yloxy)-6-fluoro-naphthalen-2-yl]-acetic acid], for which the IC50 was 20.3 nM in experiment [1] and more than 5000 nM in experiment [2].
Take `CC(=O)N1CCC(Oc2cc(CC(=O)O)cc3ccc(F)cc23)CC1` [Example 5-1, [4-(1-Acetyl-piperidin-4-yloxy)-6-fluoro-naphthalen-2-yl]-acetic acid]: the IC50 is 163 nM in experiment [1] and more than 5000 nM in experiment [2].
`O=C(O)Cc1cc(OC2CCN(C(=O)C3CC3)CC2)c2cc(F)ccc2c1` [Example 5-4, [4-(1-Cyclopropanecarbonyl-piperidin-4-yloxy)-6-fluoro-naphthalen-2-yl]-acetic acid]: the 50% inhibitory concentration (IC50) in experiment [1] came to 67.8 nM.
Take `O=C(O)Cc1cc(OC2CCN(C(=O)C3CCCC3)CC2)c2cc(F)ccc2c1` [Example 5-5, [4-(1-Cyclopentanecarbonyl-piperidin-4-yloxy)-6-fluoro-naphthalen-2-yl]-acetic acid]: the IC50 in experiment [1] stood at 53.3 nM.
For the compound `O=C(O)Cc1cc(OC2CCN(C(=O)c3ccccc3)CC2)c2cc(F)ccc2c1` [Example 5-6, [4-(1-Benzoyl-piperidin-4-yloxy)-6-fluoro-naphthalen-2-yl]-acetic acid], the IC50 in experiment [1] was 13.4 nM.
On to `O=C(O)Cc1cc(OC2CCN(C(=O)c3ccccc3F)CC2)c2cc(F)ccc2c1` [Example 5-7, {6-Fluoro-4-[1-(2-fluoro-benzoyl)-piperidin-4-yloxy]-naphthalen-2-yl}-acetic acid], for which the concentration for half-maximal inhibition (IC50) in experiment [1] was 19.4 nM.
In turn, `O=C(O)Cc1cc(OC2CCN(C(=O)c3cccc(F)c3)CC2)c2cc(F)ccc2c1` [Example 5-8, {6-Fluoro-4-[1-(3-fluoro-benzoyl)-piperidin-4-yloxy]-naphthalen-2-yl}-acetic acid] registered a 50% inhibitory concentration (IC50) in experiment [1] of 29.8 nM.
`O=C(O)Cc1cc(OC2CCN(C(=O)c3ccc(F)cc3)CC2)c2cc(F)ccc2c1` [Example 5-9, {6-Fluoro-4-[1-(4-fluoro-benzoyl)-piperidin-4-yloxy]-naphthalen-2-yl}-acetic acid]: in experiment [1], the IC50 was 31.3 nM.
The same measure, in the same setting: the same measure for `O=C(O)Cc1cc(OC2CCN(C(=O)Cc3ccccc3)CC2)c2cc(F)ccc2c1` [Example 5-10, [6-Fluoro-4-(1-phenylacetyl-piperidin-4-yloxy)-naphthalen-2-yl]-acetic acid]: 2.9 nM.
As for `CCNC(=O)N1CCC(Oc2cc(CC(=O)O)cc3ccc(F)cc23)CC1` [Example 6-1, [4-(1-Ethylcarbamoyl-piperidin-4-yloxy)-6-fluoro-naphthalen-2-yl]-acetic acid], the IC50 in experiment [1] is 24.5 nM.
For the compound `O=C(O)Cc1cc(OC2CCN(C(=O)Nc3ccccc3F)CC2)c2cc(F)ccc2c1` [Example 6-2, {6-Fluoro-4-[1-(2-fluoro-phenylcarbomoyl)-piperidin-4-yloxy]-naphthalen-2-yl}-acetic acid], in experiment [1], the concentration for half-maximal inhibition (IC50) is 4.3 nM.
Consider `O=C(O)Cc1cc(OC2CCN(C(=O)Nc3cccc(F)c3)CC2)c2cc(F)ccc2c1` [Example 6-3, {6-Fluoro-4-[1-(3-fluoro-phenylcarbamoyl)-piperidin-4-yloxy]-naphthalen-2-yl}-acetic acid], for which the IC50 in experiment [1] is 3 nM.
Regarding `O=C(O)Cc1cc(OC2CCN(C(=O)Nc3ccc(F)cc3)CC2)c2cc(F)ccc2c1` [Example 6-4, {6-Fluoro-4-[1-(4-fluoro-phenylcarbamoyl)-piperidin-4-yloxy]-naphthalen-2-yl}-acetic acid], in experiment [1], the concentration for half-maximal inhibition (IC50) worked out at 5 nM.
With `O=C(O)Cc1cc(OC2CCN(C(=O)NCCc3ccccc3)CC2)c2cc(F)ccc2c1` [Example 6-5, [6-Fluoro-4-(1-phenethylcarbamoyl-piperidin-4-yloxy)-naphthalen-2-yl]-acetic acid], the 50% inhibitory concentration (IC50) in experiment [1] turned out to be 4 nM.
